Measurements as given in patent US10894777B2, “TG2 inhibitor piperazine compounds and uses thereof” (UNIVERSITY OF OTTAWA, priority 2016, dated 2021).

Key:
hTG6 = hTG6 (Homo sapiens, UniProt O95932); assay: Colorimetric transamidase activity assay (AL5 substrate), hTG6; type: biochemical
Description: (§1) Selectivity of certain irreversible inhibitors over other members of the transglutaminase family was assessed. […] Inhibitors were tested using a continuous colorimetric assay (Leblanc, A. et al., Biochemistry (2001), 40 (28): 8335-8342) for hTG1 and hTG6 and a commercially available continuous fluorescent assay that utilizes a peptidic FRET quenched substrate (Oertel, K. et al., Anal. Biochem. (2007), 367 (2): 152-158; Király, R. et al., Amino Acids (2016), 48 (1): 31-40) for the other transglutaminases, FXIIIa and hTG3. The rate constant of enzyme inactivation (kobs) for a specific concentration of inhibitor was obtained using Kitz and Wilson conditions (Kitz, R. et al., J. Biol. Chem. (1962), 237: 3245-49). Inhibitor concentrations were adjusted to account for competition with substrates in each enzymatic reaction.
In Vitro Assays. Colorimetric transamidase activity assay.

FXIIIa = target: T1, FXIIIa (Homo sapiens, UniProt P00488); assay: Fluorescence isopeptidase activity assay (A101 probe), FXIIIa; type: biochemical
T1 construct: purchased Zedira
T1 sequence (P00488 39-732 limits assumed): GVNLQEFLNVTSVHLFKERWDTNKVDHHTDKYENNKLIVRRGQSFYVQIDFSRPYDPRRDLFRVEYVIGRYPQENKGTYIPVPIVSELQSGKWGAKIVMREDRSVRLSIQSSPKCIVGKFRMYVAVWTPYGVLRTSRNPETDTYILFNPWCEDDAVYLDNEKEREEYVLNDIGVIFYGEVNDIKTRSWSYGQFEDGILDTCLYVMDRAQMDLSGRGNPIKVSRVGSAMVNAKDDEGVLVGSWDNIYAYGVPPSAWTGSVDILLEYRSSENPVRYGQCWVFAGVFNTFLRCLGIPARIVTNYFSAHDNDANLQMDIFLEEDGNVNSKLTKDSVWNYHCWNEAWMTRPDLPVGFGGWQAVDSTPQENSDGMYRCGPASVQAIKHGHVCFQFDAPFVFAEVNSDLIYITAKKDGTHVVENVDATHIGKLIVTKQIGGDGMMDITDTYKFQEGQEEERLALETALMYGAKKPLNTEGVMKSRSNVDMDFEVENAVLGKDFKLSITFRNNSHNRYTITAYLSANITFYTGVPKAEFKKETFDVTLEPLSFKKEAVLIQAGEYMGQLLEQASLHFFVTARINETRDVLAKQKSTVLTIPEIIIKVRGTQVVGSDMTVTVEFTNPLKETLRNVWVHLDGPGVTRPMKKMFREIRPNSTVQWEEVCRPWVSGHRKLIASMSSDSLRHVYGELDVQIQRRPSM
Description: as §1
Fluorescence isopeptidase activity assay. The isopeptidase activity of pre-activated TG3a and FXIIIa (purchased from Zedira) was measured via a fluorescence-based assay (Király, R. et al., Amino Acids (2016), 48 (1): 31-40) using the commercially available peptidic FRET quenched probe A101 from Zedira. Briefly, the final concentration in the reaction mixture contained 50 mM Tris (pH 7.0), 10 mM CaCl2, 100 mM NaCl, 2.8 mM TCEP, 50 μM A101 and 14 mM H-Gly-OMe. The reaction was monitored at 25° C. using a BioTek Synergy 4 plate reader (Ex/Em: 318/413 nm).

R580A-TG2 = target: T2, R580A-TG2 (Homo sapiens, UniProt P21980, R580A); assay: In situ transamidating assay, SH-SY5Y cells stably overexpressing R580A-TG2; type: cell-based; settings: 10 μM, 16-20 h, no calcium stimulation
T2 construct: expressed in transfected cells
T2 sequence (P21980 1-687 R580A): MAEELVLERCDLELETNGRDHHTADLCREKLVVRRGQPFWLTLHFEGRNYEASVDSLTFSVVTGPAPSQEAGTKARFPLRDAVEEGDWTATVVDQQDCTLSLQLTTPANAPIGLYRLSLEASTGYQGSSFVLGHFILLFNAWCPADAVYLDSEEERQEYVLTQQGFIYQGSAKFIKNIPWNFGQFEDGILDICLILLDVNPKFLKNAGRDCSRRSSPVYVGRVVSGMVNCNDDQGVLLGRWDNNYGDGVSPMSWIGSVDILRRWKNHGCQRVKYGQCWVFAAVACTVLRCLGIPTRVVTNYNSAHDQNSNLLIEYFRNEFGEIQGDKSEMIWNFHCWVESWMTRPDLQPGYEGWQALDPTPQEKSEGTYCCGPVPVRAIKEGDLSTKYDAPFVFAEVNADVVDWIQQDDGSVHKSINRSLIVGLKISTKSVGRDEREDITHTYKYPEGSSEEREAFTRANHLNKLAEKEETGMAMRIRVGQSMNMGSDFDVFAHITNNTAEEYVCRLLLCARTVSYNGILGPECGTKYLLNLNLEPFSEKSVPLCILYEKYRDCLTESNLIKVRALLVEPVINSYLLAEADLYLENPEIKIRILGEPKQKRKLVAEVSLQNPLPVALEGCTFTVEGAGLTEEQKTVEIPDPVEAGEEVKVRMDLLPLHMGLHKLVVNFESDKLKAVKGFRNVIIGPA
Description: These inhibitors were then tested in cell culture models for their efficiency in inhibiting in situ transamidating activity. […] For these studies we used SH-SY5Y neuroblastoma cells stably overexpressing R580A-TG2.
In situ transglutaminase assay. In situ transamidating activity measurement was conducted as described previously (Gundemir, S. and Johnson, G. V., PLoS ONE 4(7):e6123, 2009) with slight modifications. Briefly, 24 h after transfection of HEK 293A cells, normal growth media was changed to fresh growth media with 5% FBS containing given amount of ionomycin (0-1.5 μM) and 0.1 mM 5-(biotinamido)pentylamine (BAP) (Pierce). 3 h later, cells were collected in media, pelleted, washed once with PBS and resuspended in homogenization buffer (50 mM Tris-Cl, pH: 7.5, 150 mM NaCl, 1 mM EDTA), sonicated on ice. In a high protein binding 96-well plate (Falcon), 10 μg of protein was loaded in a total of 50 μL homogenization buffer and the plate was incubated at 4° C. overnight. The next day, 200 μL of blocking buffer (5% BSA, 0.01% Tween 20 in borate saline [100 mM boric acid, 20 mM Na-borate and 0.76 mM NaCl]) was added to each sample and the plate was incubated at 37° C. for 1 h. Each well was then rinsed 3 times with rinsing buffer (1% BSA, 0.01% Tween 20 in borate saline) and incubated with 1 μg/μL Horseradish peroxidase conjugated neutravidin (Pierce) in a total of 100 μL rinsing buffer at room temperature for 1 h. The samples were washed 4 times with rinsing buffer, and peroxidase reaction was conducted in the dark in 200 μL of OPD buffer (50 mL of 0.1 M Na2HPO4, 50 mM citric acid, 1 tablet o-phenylenediamine (Sigma Aldrich), 0.0006% H2O2). After 20 minutes, the reaction was stopped by addition of 50 μL of 1 M sulfuric acid and read at 493 nm wavelength.

TS543 neurospheres = assay: Neurosphere growth, TS543 (mesenchymal); type: cell-based, human; settings: 25 μM, 2 weeks
Excerpt: Neurosphere cultures. TS543, TS565 and TS676, which represent the mesenchymal, proneural and classical glioblastoma subtypes respectively, based on transcriptomic and genomic analysis, were obtained from C. Brennan through the Monoclonal Antibody Core Facility at Memorial Sloan Kettering Cancer Center (Brennan, C. et al., PLoS One 4(11):e7752, 2009; Pyonteck, S. M. et al., Nature Med. 19(10):1264-72, 2013; Rohle, D. et al., Science 340(6132):626-30, 2013) and maintained in NeuroCult™ NS-A Proliferation Kit (Human) (Stem Cell Technologies) according to manufacturer's instructions. (NeuroCult Medium was supplemented with 20 ng/mL FGF, 50 ng/mL EGF and 0.0002% Heparin). To prevent neurosphere attachment to the bottom of the cell culture plates, Poly 2-hydroxyethyl methacrylate (PHM) was used. 6-well plates were coated with 1 mL/well of 1% PHM in ethanol (w/v). The plates were air dried in a sterile environment overnight and washed once with PBS and they were kept in the fridge in a sterile environment until use. For passaging, neurospheres were triturated according to instructions and 5,000 cells were seeded in each well in 2 mL medium. For treatments with TG2 inhibitors, cells were inoculated in medium containing 25 μM TG2 inhibitor or DMSO control. 200 μL of medium containing the 25 μM TG2 inhibitor or DMSO was added every other day. At the end of 2 weeks, 20-50 random microscopic images were captured for each group. The average volume of each sphere image was determined using Image J by a person blinded for neurosphere lines and treatments and volumes were calculated from the area data and used for comparison.

[1] = Table 9, Kitz and Wilson conditions

hTG6, sequence (O95932 whole entry): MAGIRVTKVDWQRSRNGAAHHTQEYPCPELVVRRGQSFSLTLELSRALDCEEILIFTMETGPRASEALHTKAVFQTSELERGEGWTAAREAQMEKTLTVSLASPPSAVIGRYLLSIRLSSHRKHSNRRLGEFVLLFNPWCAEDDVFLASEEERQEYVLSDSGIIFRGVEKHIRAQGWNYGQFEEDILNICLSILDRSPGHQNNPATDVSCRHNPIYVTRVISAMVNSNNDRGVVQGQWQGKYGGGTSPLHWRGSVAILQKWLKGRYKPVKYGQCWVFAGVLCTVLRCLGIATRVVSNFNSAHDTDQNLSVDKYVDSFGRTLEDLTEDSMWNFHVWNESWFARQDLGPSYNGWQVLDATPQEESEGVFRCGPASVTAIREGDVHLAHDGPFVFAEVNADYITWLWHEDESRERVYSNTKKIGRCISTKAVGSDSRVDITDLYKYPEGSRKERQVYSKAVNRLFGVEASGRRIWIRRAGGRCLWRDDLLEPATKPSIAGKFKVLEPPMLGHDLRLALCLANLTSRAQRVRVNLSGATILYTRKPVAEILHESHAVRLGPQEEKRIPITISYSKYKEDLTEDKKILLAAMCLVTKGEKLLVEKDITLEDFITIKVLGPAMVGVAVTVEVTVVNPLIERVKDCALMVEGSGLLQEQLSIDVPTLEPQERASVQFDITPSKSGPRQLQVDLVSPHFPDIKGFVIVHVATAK

SMILES	kobs (10^−3 min^−1), TG6 (hTG6; [1])	kobs (10^−3 min^−1), FXIIIa (FXIIIa; [1])	resting (basal) transamidating activity of R580A-TG2 (R580A-TG2)	sphere growth, TS543 (TS543 neurospheres)	inhibition of hTG6 (hTG6)	less reactive with FXIIIa compared to hTG2 (FXIIIa; from kobs)
C=CC(=O)NCCCC[C@H](NC(=O)OCc1ccccc1)C(=O)NCCOCCOCCNS(=O)(=O)c1cccc2c(N(C)C)cccc12 [NC9]	6.16 ± 0.14 10^−3 min^−1	5.91 ± 1.59 10^−3 min^−1	inhibit resting transamidating activity of R580A-TG2	suppressed sphere growth		
C=CC(=O)NCCCC[C@H](NC(=O)OCc1ccccc1)C(=O)N1CCN(S(=O)(=O)c2cccc3c(N(C)C)cccc23)CC1 [VA4, (S)-benzyl(6-acrylamido-1-(4-((5-(dimethylamino)naphthalen-1-yl)sulfonyl)piperazin-1-yl)-1-oxohexan-2-yl)carbamate]			inhibit resting transamidating activity of R580A-TG2	suppressed sphere growth	no inhibition was observed	80 fold
C=CC(=O)NCCCC[C@H](NC(=O)OCc1ccccc1)C(=O)N1CCN(C(=O)c2cc3ccc(O)cc3oc2=O)CC1 [VA5, (S)-Benzyl(6-acrylamido-1-(4-(7-hydroxy-2-oxo-2H-chromene-3-carbonyl)piperazin-1-yl)-1-oxohexan-2-yl)carbamate]			inhibit resting transamidating activity of R580A-TG2	promoted growth		
